Values of other authors, collected in patent US20250352504A1, “LEVOCARNITINE AND TRIMETAZIDINE BILAYER TABLET AND PREPARATION METHOD THEREOF” (Changzhou High-tech Industrial Development Zone 3D …, priority 2024, published 2025).
Counter-ions that a name gives are not always drawn. Like-named read-outs stand apart in the source and are kept apart here.

Columns and labels:
[1] = crystalline powder

Row | hygroscopicity [1] | solubility (acetone) | solubility (formic acid) | Compound | solubility (ethanol) | solubility (ether) | solubility (water) | solubility (0.1 mol/L hydrochloric acid solution) | solubility (0.1 mol/L sodium hydroxide solution) | solubility (acetic acid) | solubility (methanol)
1 | strong hygroscopicity | almost insoluble | easily soluble | C[N+](C)(C)C[C@H](O)CC(=O)[O-] [Levocarnitine, (3R)-3-hydroxy-4-(trimethylammonio) butanoate] | readily soluble | almost insoluble | readily soluble | – | – | – | –
2 | – | – | – | COc1ccc(CN2CCNCC2)c(OC)c1OC [Trimetazidine dihydrochloride, 1-(2,3,4-Trimethoxybenzyl) piperazine dihydrochloride] | slightly soluble | almost insoluble | highly soluble | highly soluble | highly soluble | easily soluble | soluble
